Where a name gives a salt, the structure may show the parent alone. Read-outs that look alike come from different tables or passages of the source.
Experiments:
[1] = intramuscular injection or intravenous injection; cited from earlier work
[2] = tested on: rats; parameters: species or system male Sprague-Dawley rats; settings: rat, in vivo
[3] = parenteral, on a weight basis; cited from earlier work
[4] = cited from earlier work; for Plasma concentrations: intravenous about 0.3 mg
[5] = intravenous, single dose of about 0.3 mg

Compound | duration of action [1] [h] | duration of analgesic action [2] [h] | duration of action ([2]; sc) [h] | analgesic potency, times as that of meperidine [3] | analgesic potency, times as that of pentazocine [3] | Cmax ([4]; 0.4 mg sublingual dose) [ng/mL] | Tmax ([4]; 0.4 mg sublingual dose) [h] | systemic availability ([4]; 0.4 mg sublingual dose) [%] | Total plasma clearance ([4]; conscious postoperative patients) | mean peak plasma buprenorphine concentrations ([4]; intramuscular second 0.3-mg dose 3 hours after the initial intravenous dose) | plasma buprenorphine concentrations ([4]; intramuscular second 0.3-mg dose, after about 3 hours) | Plasma concentrations ([4]; after about 5 minutes) | Plasma concentrations ([4]; after about 3 hours) | mean peak plasma drug concentrations [4, 5] | time of mean peak plasma drug concentrations [4, 5] [min] | Analgesic duration ([2]; HCl) [h] | duration of analgesic action ([2]; HCl) [h]
CO[C@]12CC[C@@]3(C[C@@H]1[C@](C)(O)C(C)(C)C)[C@H]1Cc4ccc(O)c5c4[C@@]3(CCN1CC1CC1)[C@H]2O5 [Buprenorphine base, (5α, 7α (S)-17-cyclopropyl-methyl)-α -(1,1-dimethylethyl)-4,5-epoxy-18,19-dihydro-3-hydroxy-6-methoxy-α -methyl-6,14-ethenomorphinan-7-methanol] | 6 to 8 | 48 to 50 | 48 to 50 | about 600 times | about 200 times | 0.5 ± 0.06 | 3.5 ± 0.667 | 57.7±6 | approximately 0.28 L/minute | about 3.6 ng/mL | about 0.4 ng/mL | about 9 ng/mL | about 0 .4 ng/mL | about 18 ng/mL | ≤ 2 | – | –
CO[C@]12CC[C@@]3(C[C@@H]1[C@](C)(O)C(C)(C)C)[C@H]1Cc4ccc(O)c5c4[C@@]3(CCN1CC1CC1)[C@H]2O5 [Buprenorphine HCl] | – | – | – | – | – | – | – | – | – | – | – | – | – | – | – | 5 | 3 to 5
